This is an account of results in patent US20090203693A1, “THERAPEUTIC AGENT FOR LIVER FIBROSIS” (Eisai R & D Management Co., Ltd., priority 2006, published 2009).

The test system of assay [1] is thioacetamide-induced hepatic fibrillization in Balb/cAnN female mice. The assay can be described thus: Mouse models of thioacetamide-induced cirrhosis (Azan staining of liver sections). The format is in vivo. The following applies: orally once daily at 1 or 3 mg/kg, thioacetamide i.p. twice a week for five weeks. The protocol: Thioacetamide (purchased from Tokyo Chemical Industry) was intraperitoneally administered at 150 mg/kg for the first week and 200 mg/kg for the next second to fifth weeks to Balb/cAnN female mice (purchased from Charles River Laboratories) twice a week. The test substance (Compound 3) was suspended in 0.5% methylcellulose aqueous solution and orally administered once daily at 1 or 3 mg/kg. Three days after the final thioacetamide administration, livers were removed from the mice and subjected to 10% neutral buffered formalin fixation followed by Azan staining (staining technique is described in “Medical Technology, supp., new technique for staining” (Ishiyaku Publisher, 1999)). The degree of fibrillization was examined by observation of the stained tissue sections. Experiments were conducted for a group without the administration of thioacetamide (6 examples), a group administered with thioacetamide but a test substance (3 examples), a group administered with Compound 3 at 1 mg/kg (6 examples) and a group administered with Compound 3 at 3 mg/kg (3 examples).

Assay [2] has as its target T1, His6-DDR2 (cytoplasmic domain of human DDR2) (Homo sapiens, UniProt Q16832).
T1 construct: cytoplasmic domain of DDR2 having 6 histidines fused to the N-terminus thereof; made in house; host or cells: Sf9 insect cells (baculovirus, pFastBac-HT)
T1 sequence (Q16832 422-855 limits assumed): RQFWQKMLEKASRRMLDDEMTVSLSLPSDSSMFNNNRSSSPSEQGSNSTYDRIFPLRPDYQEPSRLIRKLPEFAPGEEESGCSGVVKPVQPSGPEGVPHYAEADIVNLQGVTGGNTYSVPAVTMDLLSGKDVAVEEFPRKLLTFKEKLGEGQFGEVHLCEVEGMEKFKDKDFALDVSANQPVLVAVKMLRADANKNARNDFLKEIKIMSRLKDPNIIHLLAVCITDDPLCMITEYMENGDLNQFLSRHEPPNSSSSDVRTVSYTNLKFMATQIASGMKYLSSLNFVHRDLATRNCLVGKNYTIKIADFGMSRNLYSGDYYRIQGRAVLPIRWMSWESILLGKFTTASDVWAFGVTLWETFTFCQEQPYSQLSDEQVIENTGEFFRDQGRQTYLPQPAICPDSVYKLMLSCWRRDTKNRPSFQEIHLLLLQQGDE
The assay is described as follows: Determination of DDR2 kinase inhibitory activity (His6-DDR2 tyrosine autophosphorylation, HTRF). The class given is biochemical. The following applies: cell free, ATP, room temperature 10 minutes, HTRF detection; read-out: IC50 (concentration of the test substance required for inhibiting His6-DDR2 kinase activity by 50%). The source says: A DNA fragment of cytoplasmic domain of human DDR2 (SEQ ID NO: 1) was isolated by PCR method (Expand High Fidelity (purchased from Roche)) according to a conventional technique using human brain cDNA library (purchased from Clontech) as a template and SEQ ID NO:3: 5′-[…]-3′ and SEQ ID NO:4: 5′-[…]-3′ (purchased from JBioS) as primers. This DNA fragment was inserted into a baculovirus transplacement vector (pFastBac™-HT (purchased from Invitrogen)) to obtain a recombinant construct. Insect cells (Spodoptera frugiperda 9 (Sf9 cells)) were transfected with this recombinant construct, thereby preparing a DDR2 recombinant baculovirus solution. For preparation of a recombinant baculovirus, we referred to a standard textbook (Bac-to-Bac Baculovirus Expression System (Invitrogen)).
The above-described DDR2 recombinant Baculovirus solution (0.07 mL) was added to Sf9 cells (7×10^7 cells) suspended in 2.5% FBS-containing SF-900II medium (purchased from Invitrogen) and shake-cultured at 27° C. for 72 hours. Then, this DDR2 recombinant Baculovirus-infected cells were subjected to centrifugation at 1,600 rpm at 4° C. for 6 minutes and the supernatant was removed. The precipitated infected cells were suspended in 10 mL of ice-cold PBS and centrifuged at 1,600 rpm at 4° C. for 6 minutes to remove the supernatant. The precipitated infected cells were suspended in 5 mL of ice-cold lysis buffer (50 mM Tris-HCl (pH 8.5), 5 mM 2-mercaptoethanol, 100 mM KCl, 1 mM PMSA, 1% (v/v) NP40), and centrifuged at 10,000 rpm at 4° C. for 10 minutes to obtain the supernatant.
This supernatant was added to a Ni-NTA agarose column (1.5 mL (purchased from Qiagen)) equilibrated with 5 mL of buffer A (20 mM Tris-HCl (pH 8.5), 5 mM 2-mercaptoethanol, 500 mM KCl, 20 mM imidazole, 10% (v/v) glycerol). This column was sequentially washed with 10 mL of buffer A, 2 mL of buffer B (20 mM Tris-HCl (pH8.5), 5 mM 2-mercaptoethanol, 1 M KCl, 10% (v/v) glycerol) and 2 mL of buffer A. Subsequently, 4 mL of buffer C (20 mM Tris-HCl (pH 8.5), 5 mM 2-mercaptoethanol, 100 mM KCl, 100 mM imidazole, 10% (v/v) glycerol) was added to obtain an eluate. This eluate was placed in a dialysis membrane (purchased from Spectrum Medical Industries) and dialyzed against 1 L of dialysis buffer (20 mM Tris-HCl, 10% (v/v) glycerol, 1 mM dithiothreitol, 0.1 mM Na3VO4, 0.1 mM EGTA) at 4° C. overnight. After dialysis, a portion of the eluate was subjected to SDS-PAGE and an amount of the recombinant protein detected at a molecular weight of about 40 kDa (His6-DDR2 (cytoplasmic domain of DDR2 having 6 histidines fused to the N-terminus thereof)) by Coomassie brilliant blue staining was quantitated using BSA as a standard substance.
To each well of a 96-well black half plate (purchased from Corning, Product No: 3694), 20 ng of His6-DDR2, 35 μL of 25 mM Hepes solution (pH 7.4) containing 14 mM MgCl2 and a test substance dissolved in dimethylsulfoxide (at 100-fold dilution with 1% BSA; 5 μL) were added to a total amount of 40 μL. To this, […] of 50 μM ATP (purchased with Sigma) diluted with 25 mM Hepes solution was added and incubated at room temperature for 10 minutes. Thereafter, 10 μL of 50 mM EDTA (pH 8.0) (purchased from Wako Pure Chemical Industries) was added to terminate the kinase reaction.
Tyrosine-phosphorylated DDR2 was detected using homogeneous time resolved fluorescence (HTRF) technique (Analytical Biochemistry, 269, 94-104, 1999). Specifically, to each well of the reaction solutions mentioned above, 20 μL of 25 mM Hepes solution containing 1 M KF, 4.75 ng of europium cryptate-labeled anti-phosphorylated tyrosine antibody (Eu(K)-PT66) and 100 ng of XL665-labeled anti-His antibody (XL665-Anti-His) was added. This reaction solution was incubated at room temperature overnight. Thereafter, fluorescence intensities of each well at 665 nm and 620 nm were measured under irradiation at an excitation wavelength of 337 nm using Discovery HTRF microplate analyzer (from Packard). […]
A general note: Time-resolved FRET reads energy transfer from a long-lived donor to a nearby acceptor.

Molecules are shown by their SMILES.

As to `COc1cc2nccc(Oc3ccc(NC(=O)Nc4nccs4)cc3)c2cc1OC` [Compound 3, N-(2-thiazole)-N′-(4-((6,7-dimethoxy-4-quinolinyl)oxy)phenyl)urea], the “degree of hepatic fibrillization (observation of stained tissue sections)” value in assay [1] was “suppressed hepatic fibrillization in a dose-dependent manner”. Also, in assay [2], the IC50 came to 0.18 nM.
